Assay results reported in ChEMBL document CHEMBL1151324, “Cytotoxic geranyl stilbenes from Macaranga schweinfurthii” (J Nat Prod, 1998).
Converted amounts (≈) assume the structure as drawn.

Assays:
A549 [1] = experiment: Cytotoxicity against human A549 cells after 1 hr; assay type: functional, cell-based; details: A549, 1 h
A549 [2] = experiment: Cytotoxicity against human A549 cells after 1 hr compound washout; assay type: functional, cell-based; details: A549, 1 h
A549 [3] = experiment: Cytotoxicity against human A549 cells after 48 hrs; assay type: functional, cell-based; details: A549, 48 h
SF-295 [4] = experiment: Cytotoxicity against human SF295 cells after 1 hr; assay type: functional, cell-based; details: SF-295, 1 h
SF-295 [5] = experiment: Cytotoxicity against human SF295 cells after 48 hrs; assay type: functional, cell-based; details: SF-295, 48 h
CCRF-CEM = experiment: Cytotoxicity against human CCRF-CEM cells; assay type: functional
K562 = experiment: Cytotoxicity against human K562 cells; assay type: functional
RPMI-8226 = experiment: Cytotoxicity against human RPMI8226 cells; assay type: functional
SR = experiment: Cytotoxicity against human SR cells; assay type: functional
HOP-62 = experiment: Cytotoxicity against human HOP62 cells; assay type: functional
NCI-H226 = experiment: Cytotoxicity against human NCI-H226 cells; assay type: functional
NCI-H23 = experiment: Cytotoxicity against human NCI-H23 cells; assay type: functional
NCI-H460 = experiment: Cytotoxicity against human NCI-H460 cells; assay type: functional
COLO 205 = experiment: Cytotoxicity against human COLO205 cells; assay type: functional
HCC 2998 = experiment: Cytotoxicity against human HCC2998 cells; assay type: functional
HT-29 = experiment: Cytotoxicity against human HT-29 cells; assay type: functional
SW-620 = experiment: Cytotoxicity against human SW620 cells; assay type: functional
SF-268 = experiment: Cytotoxicity against human SF268 cells; assay type: functional
SF-295 [6] = experiment: Cytotoxicity against human SF295 cells; assay type: functional
SF-539 = experiment: Cytotoxicity against human SF539 cells; assay type: functional
SNB-19 = experiment: Cytotoxicity against human SNB19 cells; assay type: functional
SNB-75 = experiment: Cytotoxicity against human SNB75 cells; assay type: functional
U-251 = experiment: Cytotoxicity against human U251 cells; assay type: functional
LOX IMVI = experiment: Cytotoxicity against human LOXIMVI cells; assay type: functional
Malme-3M = experiment: Cytotoxicity against human MALME-3M cells; assay type: functional

**Q.** What does the source list for `CC(C)=CCC/C(C)=C/Cc1c(O)cc(/C=C/c2cc(O)c3c(c2)C[C@@H]2C(C)(C)[C@H](O)[C@H](O)C[C@@]2(C)O3)cc1O` [SCHWEINFURTHIN A]?
**A.** IC50 (A549 [1]): 43 µg/mL (≈ 78.4 µM); IC50 (A549 [2]): 20 µg/mL (≈ 36.4 µM); IC50 (A549 [3]): 3.7 µg/mL (≈ 6.74 µM); IC50 (SF-295 [4]): 47 µg/mL (≈ 85.7 µM); IC50 (SF-295 [5]): < 0.01 ng/mL; GI50 (CCRF-CEM): 0.01 µM; LC50 (CCRF-CEM): 74.1 µM; TGI (CCRF-CEM; read-out: pTGI (converted)): 2.09 µM; GI50 (K562): 0.0646 µM; LC50 (K562): 72.4 µM; TGI (K562; read-out: pTGI (converted)): 14.1 µM; GI50 (RPMI-8226): 0.01 µM; LC50 (RPMI-8226): 75.9 µM; TGI (RPMI-8226; read-out: pTGI (converted)): 0.0209 µM; GI50 (SR): 0.0708 µM; LC50 (SR): 74.1 µM; TGI (SR; read-out: pTGI (converted)): 18.2 µM; GI50 (HOP-62): 0.12 µM; LC50 (HOP-62): 40.7 µM; TGI (HOP-62; read-out: pTGI (converted)): 15.1 µM; GI50 (NCI-H226): 4.47 µM; LC50 (NCI-H226): 70.8 µM; TGI (NCI-H226; read-out: pTGI (converted)): 15.8 µM; GI50 (NCI-H23): 3.24 µM; LC50 (NCI-H23): 51.3 µM; TGI (NCI-H23; read-out: pTGI (converted)): 18.2 µM; GI50 (NCI-H460): 0.0129 µM; LC50 (NCI-H460): 38.9 µM; TGI (NCI-H460; read-out: pTGI (converted)): 12 µM; GI50 (COLO 205): 1.1 µM; LC50 (COLO 205): 7.08 µM; TGI (COLO 205; read-out: pTGI (converted)): 2.82 µM; GI50 (HCC 2998): 0.501 µM; LC50 (HCC 2998): 33.1 µM; TGI (HCC 2998; read-out: pTGI (converted)): 9.77 µM; GI50 (HT-29): 0.309 µM; LC50 (HT-29): 5.5 µM; TGI (HT-29; read-out: pTGI (converted)): 2.4 µM; GI50 (SW-620): 0.257 µM; LC50 (SW-620): 44.7 µM; TGI (SW-620; read-out: pTGI (converted)): 18.2 µM; GI50 (SF-268): 2.4 µM; LC50 (SF-268): 74.1 µM; TGI (SF-268; read-out: pTGI (converted)): 20.9 µM; LC50 (SF-295 [6]): 17 µM; GI50 (SF-295 [6]; read-out: GI50): 0.011 µM; TGI (SF-295 [6]; read-out: TGI): 0.052 µM; GI50 (SF-295 [6]; read-out: pGI50 (converted)): 0.011 µM; TGI (SF-295 [6]; read-out: pTGI (converted)): 0.0525 µM; GI50 (SF-539): 0.01 µM; LC50 (SF-539): 8.13 µM; TGI (SF-539; read-out: pTGI (converted)): 1.7 µM; GI50 (SNB-19): 0.257 µM; LC50 (SNB-19): 49 µM; TGI (SNB-19; read-out: pTGI (converted)): 20 µM; GI50 (SNB-75): 0.0151 µM; LC50 (SNB-75): 50.1 µM; TGI (SNB-75; read-out: pTGI (converted)): 0.38 µM; GI50 (U-251): 0.0251 µM; LC50 (U-251): 49 µM; TGI (U-251; read-out: pTGI (converted)): 22.9 µM; GI50 (LOX IMVI): 0.038 µM; LC50 (LOX IMVI): 38.9 µM; TGI (LOX IMVI; read-out: pTGI (converted)): 17 µM; GI50 (Malme-3M): 4.27 µM; LC50 (Malme-3M): 53.7 µM
